Laboratory results from US9023767B2, “γ-Secretase substrates and methods of use” (Memorial Sloan-Kettering Cancer Center, priority 2009, dated 2015).

Assays:
γ-secretase [1] = target: T1, γ-secretase (Homo sapiens (Human), UniProt P49768+Q92542); assay: In vitro γ-secretase assay, HeLa membrane, APP-derived substrates, ECL detection; format: biochemical; conditions: S4 substrate
Experimental: The recombinant proteins were incubated with γ-secretase (40 μg/ml) in the presence or absence of 1 μM γ-secretase inhibitor L-685,458 (CAS [292632-98-5], shown below). The reaction mixture contains 0.25% 3[(3-cholamidopropyl) dimethylammonio]-2-hydroxypropanesulfonic acid (CHAPSO), 0.1 μg/μl BSA, protease inhibitor, 50 mM PIPES, pH 7.0, 5 mM MgCl2, 5 mM CaCl2 and 150 mM KCl. The reaction was incubated for 2.5 hr at 37° C. and stopped by adding RIPA buffer (150 mM NaCl, 1.0% NP-40, 0.5% sodium
[drawing 1] deoxycholate, 0.1% SDS, 50 mM Tris HCl, pH 8.0). The products were detected with various antibody combinations as previously described (Lai et al., 2003; J. Biol. Chem., 278: 22475-22481; Li et al., 2000, Proc. Natl. Acad. Sci. USA, 97: 6138-6143; Yin et al., 2007, J. Biol. Chem., 282:23639-23644) using electrochemiluminescence (ECL). The amount of product was determined using synthetic peptide or recombinant standards. The Km and Vmax were determined from the Michaelis-Menten equation Michaelis-Menten Kinetics (ν=Vm[S]/([…]; ν: initial rate; Vm: maximum velocity; Km: the Michaelis-Menten constant, S: substrate). P-values were calculated from Student t-test. 7.1.5 Cell-Based Aβ Production Assay and Western Blot

γ-secretase [2] = target: T1, γ-secretase; assay: Photoaffinity labeling of γ-secretase in HeLa membrane by Aβ17-23BPA20-biotin; format: binding; conditions: inhibitor at 2 μM
Experimental: FIG. 4. […] Various concentrations of inhibitor were incubated with APP substrate (S4) or Notch peptide substrate containing the C-terminal biotinylated transmembrane domain of Notch1 and HeLa cell membrane in the presence of 0.25% CHAPSO. Aβ40 was detected by G2-10 antibody. The cleaved Notch product was detected by Val1744 antibody that specifically recognizes the cleaved product between Gly1743 and Val1744. Activities are expressed as percentage relative to reading that was produced in DMSO control. […] Various concentrations of S4 substrate were incubated with HeLa membrane in fixed concentrations of inhibitor as indicated. The double reciprocal velocity (1/v) and substrate concentrations (1/S) are plotted to determine the type of inhibition. […] Assays were conducted as described in FIG. 4A. […] The labeled samples were solubilized with RIPA buffer. Biotinylated proteins were captured with streptavidin-agarose and probed by immunoblotting using antibodies against biotin, PS1-CTF, PS1-NTF, Nicastrin, PEN-2 and APH-1a. HeLa cell membrane proteins were directly loaded onto lanes indicated by an arrow in the PEN-2 and APH-1a blots as positive controls. […] Upper panel: PS1-NTF; Lower panel: PS1-CTF.
The labeled proteins were eluted with 2×SDS sample buffer and analyzed with Western blotting using antibodies against the components of γ-secretase complex. Protein concentration was determined with the Dc protein assay kit (Bio-Rad)
After the photolyzed membranes were solubilized, biotinylated proteins were captured, eluted and analyzed by western blotting with antibodies against biotin, PS1, nicastrin, PEN-2 and APH-1.

γ-secretase [3] = target: T2, γ-secretase (Homo sapiens (Human), UniProt P49768); assay: Notch1 processing in ΔE-Notch1 transfected HEK293 cells, NICD Western blot; format: cell-based; conditions: 2 μM, 48 hrs
Experimental: FIG. 5. […] The conditioned media were collected and secreted Aβ40 was measured with 6E10/G2-10 antibodies (mean±SEM; n=3). The activities of the peptide treatments were normalized to the DMSO treatment. […] The same experiments were performed as FIG. 5c. The cell lysates were analyzed by CT-15 antibody. Upper panel: full length APP. Lower panel: CTFs. […] The ΔE-Notch1 (a Notch construct with deletion of the extracellular portion and tagged by Myc) was transfected into HEK293 cells.

γ-secretase [4] = target: T2, γ-secretase; assay: HTRF γ-secretase assay with Sb4 substrate; format: biochemical; conditions: 384-well, 2% DMSO; read-out: IC50, HTRF assay
Source text: We set out to transfer the assay conditions obtained with the ECL method to an HTRF detection based format (FIG. 10b). The HTRF detection mixture consisted of mouse G2-10 antibody for recognition of the C-terminal epitope of the cleaved product, a Europium-labeled anti-mouse antibody (commonly, an antibody is conjugated with a cryptate ligand that forms a three dimensional coordination cage structure surrounding a lanthanide such as Eu^3+), along with Streptavidin conjugated to a trimeric form of the fluorescent protein allophycocyanin referred to as XL665. Cleavage of Sb4 substrate allows G2-10 mouse antibody to bind to the Aβ40-processed site on the cleaved substrate. The Steptavidin-XL665 conjugate binds directly with the biotin moiety on the N-terminal end of the Sb4 derived product. The anti-mouse Europium antibody targets to the G2-10 antibody, bringing all of these entities into close proximity. The Europium and XL665 reagents are a compatible pair of donor-acceptor fluorophores, and excitation of Europium at 337 nm results in fluorescence energy resonance transfer (FRET) to XL665 which fluoresces at 665 nm (FIG. 10b).
Human γ-secretase was prepared from HeLa cell membranes as described previously (Li et al., 2000). Briefly, HeLa cell pellet was resuspended in 1×MES buffer (50 mM MES, pH 6.0, 150 mM KCl, 5 mM CaCl2, 5 mM MgCl2) and treated with ‘complete’ protease inhibitor (Boehringer Mannheim). The resuspended pellet was mechanically homogenized by passing the cells through the French Press (Spectronic Instruments), and subsequently spun down at 800 g to remove cell debris and nuclei. Next, the supernatants were spun at 100,000 g in order to pellet the membranes. The pelleted membranes were resuspended in 1×MES buffer to approximately 12 mg/ml. This entire procedure was performed at 4° C. HeLa membranes were solubilized using 1% CHAPSO detergent in 1×MES buffer with protease inhibitors. After incubating for 1 hr at 4° C., the membrane was spun down at 100,000 g and the supernatants were collected and stored at −70° C. The collected fraction is defined as solubilized γ-secretase.
HTRF conditions were initially optimized in a 384-well format using a final volume of 20 μl. The high control for this assay was defined as the observed γ-secretase activity in the presence of 1% DMSO (v/v) and the low control as the activity observed when including 100 nM final concentration of Compound E (v/v). First, we determined a tolerable DMSO concentration that would not interfere with γ-secretase activity. Even with 3% DMSO (v/v) present in the assay mixture, there was virtually no effect on the γ-secretase activity (FIG. 11a), which was critical as delivery of library screening compounds required a final concentration of 2% DMSO (v/v) in the γ-secretase reaction. Next, we titrated the HTRF mixture components in an effort to minimize reagent costs for use in high throughput screening. […] Additionally, we varied Europium conjugated anti-mouse antibody and determined that 1 nM of this reagent in the HTRF mixture was sufficient for our assay conditions even though the signal continued to increase with higher concentrations of the anti-mouse antibody (FIG. 11c).
We have further miniaturized the HTRF assay from the established 384-well format to a 1536-well platform enabling more efficient screening of large chemical libraries. […] Based on these optimization experiments, we set our final assay conditions at 0.3 nM G2-10, 1 nM anti-mouse antibody, 15 nM Streptavidin-XL665, and proceeded with the assay at 10 μl final volume (5 μl γ-secretase mix+5 μl HTRF mix) in the 1536-well format for screening.
The pilot assay was performed in duplicate on two separate days to account for any day-to-day variability. […]

A20 mouse lymphoma cells = assay: Lymphoma cell proliferation assay, [3H]thymidine incorporation; format: cell-based; conditions: 48 hours
Experimental: For a lymphoma cell proliferation assay, A20 mouse lymphoma cells were seeded in a 96-well plate at a concentration of 5×10^5 cells/ml in 100 μl RPMI media containing 2% fetal bovine serum. An additional 100 μl of media containing DMSO or γ-secretase inhibitor was added and incubated for 48 hours at 37° C. After this incubation, the cells were incubated for 5 hours with 2 μCi/ml [^3H]thymidine at 37° C. Proliferative response was then evaluated by harvesting the tritiated DNA from cells using a Skatron cell harvester and proliferation assessed as a function of [^3H]thymidine incorporation measured on a β-counter.

## CC(C)C[C@H](NC(=O)[C@H](Cc1ccccc1)C[C@@H](O)[C@H](Cc1ccccc1)NC(=O)OC(C)(C)C)C(=O)N[C@@H](Cc1ccccc1)C(N)=O [L-685,458]
γ-secretase [1]
  type of inhibition (Lineweaver-Burk): competitive inhibition
γ-secretase [2]
  block of photo-crosslinking of PS1-CTF and PS1-NTF by Aβ17-23BPA20-biotin: completely blocked
γ-secretase [3]
  production of NICD: NICD was not detected
γ-secretase [4]
  IC50: 1.4 nM
A20 mouse lymphoma cells
  inhibition of cellular proliferation: able to inhibit cellular proliferation
